From patent publication US20050152857A1, “Method and preparation for reducing sunburn cell formation in skin” (PCR Technology Holdings, LC, priority 2004, published 2005)

Key:
[1] = tested on: sensitivity of skin to UV light; details: cited from earlier work
[2] = tested on: sunburn cells in human skin; test: 2-week human sun burn cell assay study with glycolic acid compositions (Formulas 4-5, 1.5 MED solar simulator); assay type: in vivo; details: compared with normal, untreated skin, UV-exposed
Excerpt: The idebenone-containing Formula 4 and the placebo Formula 5 of Example 3 were applied to human skin in a 2-week human sun burn cell assay study.
The panel composition was six different healthy adult volunteers between the ages of 18 and 53. All were in excellent health, and without any significant internal or dermatological diseases. The subjects were carefully screened to insure they were not taking any medications.
The subjects were given detailed instructions to avoid any direct exposure to sunlight and to minimize any incidental exposure to their backs for the entire duration of the study. […]
The light source used was a 150 watt xenon arc solar simulator equipped with a UV reflecting diachronic mirror and a 1 mm thick Schott WG-320 filter to produce simulation of the solar spectrum. […] Total irradiance at skin level was measured with a calibrated Eppley Thermopile and the UVB component was monitored with a UVB radiometer (International Light Inc, Newburyport, Mass.). […]
Two days prior to the end of the study, the MED (minimal erythema dose) for each subject was determined by exposing several normal untreated skin sites over the midback area to a series of exposures in 25% dose increments from the solar simulator. […] The MED was recorded in the appropriate case record form. […]

SMILES	sensitivity of skin to UV light, sunburn cell induction ([1]; 10% glycolic acid (pH 3.5) once daily, 6 days per week, 4 weeks, 1.5 MED, 29 Caucasian subjects)	duration of photosensitivity after terminating treatments ([1]; 10% glycolic acid (pH 3.5), after 4 weeks of treatment)	prevention of the increase in sun sensitivity / sunburn cell formation produced by 10 wt. % glycolic acid [2]
O=C(O)CO [glycolic acid]	enhanced sensitivity to UV light, including increased sunburn cell induction	reversed within a week of terminating treatments	
COC1=C(OC)C(=O)C(CCCCCCCCCCO)=C(C)C1=O [idebenone, 6-(10-hydroxydecyl)-2,3-dimethoxy-5-methyl-1,4-benzoquinone]			prevented the increase in formation of sunburn cells
